According to US20220249522A1, “Hypoxia Targeting Compositions and Combinations Thereof with a PARP Inhibitor and Methods of Use Thereof” (The Board of Trustees of the Leland Stanford Junior …, priority 2018, published 2022):

Columns and labels:
[1] = tested on: OVCAR8 cell line; test: Colony formation survival after 7 days PARP inhibitor in 21%, 5% or 2% oxygen; assay type: cell-based; conditions: for survival in the presence of PARP inhibitor: olaparib 1 μM or talazoparib 10 nM; for survival fraction versus correspondingly treated samples at 21% oxygen: 2% oxygen; for survival fraction versus correspondingly treated samples at 21% oxygen / survival fraction: olaparib 0-1 μM or talazoparib 0-10 nM; for survival fraction: 21% oxygen
Source text: (§1) FIGS. 1A-1D show plots of survival fraction versus olaparib (AZD-2281) concentration for SUM149 (FIG. 1A), CAPAN-1 (FIG. 1B), HT1080 (FIG. 1C), and OVCAR8 (FIG. 1D) cell lines cultured in 21% oxygen or 2% oxygen conditions.
(§2) FIGS. 2A-2D show plots of survival fraction versus talazoparib (BMN 673) concentration for SUM149 (FIG. 2A), CAPAN-1 (FIG. 2B), HT1080 (FIG. 2C), and OVCAR8 (FIG. 2D) cell lines cultured in 21% oxygen or 2% oxygen conditions.
(§3) Specifically, a series of cell lines deficient for HR were treated with PARP inhibitors (olaparib or talazoparib (BMN 673)) for 7 days in 21% oxygen (representative of normoxic conditions) or 2% oxygen (representative of hypoxic conditions). In duplicates, 250-2000 cells of each cell line were seeded in 6-well plates and treated with varying concentrations of olaparib (0-1 μM) or talazoparib (0-10 nM). At the end of the treatment, media from each well was changed to drug-free media and cells were incubated to allow for formation of colonies. At the end of each incubation, colonies were fixed in 70% ethanol and stained with Crystal Violet to facilitate counting of colonies. At least 3 biological replicates were performed for each condition tested. The HR deficient cell lines treated were SUM149 (a BRAC1 mutant, triple negative breast cancer cell line), CAPAN-1 (a BRAC2 mutant, pancreatic cancer cell line), HT1080 (an IDH mutant, fibrosarcoma cell line), and OVCAR8 (a hypermethylated BRAC1 promoter, ovarian serous adenocarcinoma (high grade) cell line).
These observations were further evaluated using the OVCAR8 cell line samples at 21% oxygen, 5% oxygen, and 2% oxygen concentrations. Specifically, OVCAR8 cell line samples were cultured in 21% oxygen, 5% oxygen, or 2% oxygen conditions and were treated with a vehicle, olaparib (1 μM), or talazoparib (BMN 673; 10 nM) for 7 days. At the end of the treatment, media from each well was changed to a drug-free media and cells were incubated to allow for formation colonies.

[2] = tested on: HT1080 cell line; test: Colony formation survival after 7 days PARP inhibitor in 21% or 2% oxygen; assay type: cell-based; conditions: olaparib 0-1 μM or talazoparib 0-10 nM; for survival fraction versus correspondingly treated samples at 21% oxygen: 2% oxygen; for survival fraction: 21% oxygen
Source text: as §1, §2, §3

[3] = tested on: SUM149 cell line; test: as above; assay type: cell-based; conditions: olaparib 0-1 μM or talazoparib 0-10 nM; for survival fraction versus correspondingly treated samples at 21% oxygen: 2% oxygen; for survival fraction: 21% oxygen
Source text: as §1, §2, §3

[4] = tested on: CAPAN-1 cell line; test: as above; assay type: cell-based; conditions: olaparib 0-1 μM or talazoparib 0-10 nM; for survival fraction versus correspondingly treated samples at 21% oxygen: 2% oxygen; for survival fraction: 21% oxygen
Source text: as §1, §2, §3

[5] = tested on: breast patient-derived tumor xenografts (PDTXs); test: Olaparib efficacy in breast PDTX models in relation to hypoxia score; assay type: in vivo; conditions: archived PDTX data of Bruna et al; hypoxia signature of Buffa et al
Source text: FIGS. 7A-7D show a schematic of diagram of olaparib treatment in OVCAR8 xenografts (FIG. 7A), a Western blot analysis of PAR levels in tumor lysates (FIG. 7B), immunohistochemical staining of vehicle- and olaparib-treated tumors (FIG. 7C), and sensitivity to olaparib inversely correlates with hypoxia in Breast PDX models (FIG. 7D).
Efficacy of olaparib in a range of patient-derived tumor xenografts (PDTXs) were previously tested in vivo by Bruna et al and the results archived in a biobank (http://caldaslab.cruk.cam.ac.uk/bcape) (see Bruna et al. Cell 167, 260-274 (2016), the disclosure of which is incorporated herein by reference). The efficacy of olaparib in these breast PDTX models in relation to their hypoxia levels was analyzed. […] (Buffa et al. Br J Cancer 102, 428-35 (2010), the disclosure of which is incorporated herein by reference). This is in accordance with the data from in vitro studies.

[6] = tested on: PARP enzyme activity in OVCAR8 xenografts; test: PAR levels in tumor lysates of xenografts (western blot); assay type: in vivo; conditions: olaparib 50 mg/kg daily intraperitoneal for 2 days
Procedure: OVCAR8 xenografts were established by subcutaneous injection of tumor cells in serum-free media/matrigel mix. Once tumors reached a size of about 100 mm^3, animals were divided into the following groups: (i) vehicle (10% 2-hydroxy-propyl-β-cyclodextrin/PBS) once a day via intraperitoneal injection (ii) olaparib (50 mg/kg) administered daily via intraperitoneal injection for 2 days. 3 animals were used per group.
Following completion of each treatment regimen, tumors were collected for analysis (FIG. 7A). PARP enzyme activity (measured via formation of PAR) was evaluated using western blot analysis.

[7] = tested on: PARP enzyme activity in HT1080 cells; test: Western blot analysis of PAR formation; assay type: cell-based; conditions: olaparib 1 μM or talazoparib 10 nM, 7 days
Procedure: (§4) FIGS. 5A and 5B show western blot analyzes of the levels of poly(ADP-ribose) (PAR) in OVCAR8 cells (FIG. 5A) and HT1080 cells (FIG. 5B) following treatment with a vehicle, olaparib (AZD-2281; 1 μM), or talazoparib (BMN 673; 10 nM) cultured in 21% oxygen or 2% oxygen conditions.
(§5) Western blot analysis of PAR formation was conducted in OVCAR8 cells and HT1080 cells following treatment with a vehicle, olaparib (AZD-2281; 1 μM), or talazoparib (BMN 673; 10 nM) cultured in 21% oxygen or 2% oxygen conditions for 7 days. PAR levels in cell lysates were quantified using western blot.

[8] = tested on: PARP enzyme activity in OVCAR8 cells; test: Western blot analysis of PAR formation; assay type: cell-based; conditions: olaparib 1 μM or talazoparib 10 nM, 7 days
Procedure: as §4, §5

[9] = tested on: OVCAR8 cells; test: Survival fraction after 96 hours tirapazamine, PARP inhibitor or combination; assay type: cell-based; conditions: tirapazamine alone 0.1 μM or 1 μM, 21% or 2% oxygen
Procedure: FIGS. 10A-10C show histograms of survival fractions of OVCAR8 cells treated with a vehicle, tirapazamine, olaparib, olaparib plus tirapazamine, talazoparib, or talazoparib plus tirapazamine.
(§6) The in vitro efficacy of single agent tirapazamine or a single agent PARP inhibitor (olaparib or talazoparib) or combinations of tirapazamine and a PARP inhibitor (olaparib or talazoparib) was assessed in HR deficient cell lines (OVCAR8 and SUM149) at 21% oxygen and 2% oxygen concentrations. Specifically, OVCAR8 cells were seeded and treated with one of the following for 96 hours in 21% oxygen or 2% oxygen concentrations: (i) vehicle; (ii) tirapazamine (TPZ; 0.1 μM or 1 μM); (iii) olaparib (OL; 1 μM); (iv) tirapazamine (at concentrations above) plus olaparib (1 μM); (v) talazoparib (BMN; 10 nM); or tirapazamine (at concentrations above) plus talazoparib (10 nM). […] At the end of the treatment, media from each sample was changed to a drug-free media and cells were incubated to allow for formation colonies before survival fraction was determined.

[10] = tested on: non-small cell lung cancer and head and neck cancer; conditions: background statement; cited from earlier work
[11] = tested on: SUM149 cells; test: Tirapazamine x PARPi dose matrix, survival and synergy analysis (Combenefit); assay type: cell-based; conditions: combination with PARPi (olaparib and BMN673)
Procedure: FIGS. 9A and 9B show survival percentage of SUM149 cells treated with olaparib (0.001-10 μM) and TPZ (0.1-50 μM) or BMN673 (0.01-20 nM) and TPZ (0.1-50 μM) (FIG. 9A), and HSA synergism analysis of SUM149 cells treated with varying doses of TPZ and olaparib or TPZ and BMN673 (FIG. 9B).
(§7) The effect of combining a hypoxia activated prodrug with PARPi on cellular toxicity was assessed. […] Combenefit; a validated, open-access software program was used to analyze the data and quantify possible synergistic or antagonistic drug interactions, and relative cell kill data are presented as survival curves (FIG. 8A& 9A), while synergy scores are presented in matrix format (FIG. 8B& 9B). […] Examples are highlighted with the red squares in the matrix plots. In OVCAR8 cells for example, tirapazamine doses required to achieve a synergy score of 30-40 when cells are treated with 10 nM BMN673 are 0.5-1 μM in hypoxia and 5-10 μM in normoxia.

[12] = tested on: SUM149 cells; test: Survival fraction after 96 hours tirapazamine, PARP inhibitor or combination; assay type: cell-based; conditions: tirapazamine alone 0.1 μM or 1 μM, 21% or 2% oxygen
Procedure: FIGS. 11A-11C show histograms of survival fractions of SUM149 cells treated with a vehicle, tirapazamine, olaparib, olaparib plus tirapazamine, talazoparib, or talazoparib plus tirapazamine.
as §6

[13] = tested on: OVCAR8 cells; test: Tirapazamine x PARPi dose matrix, survival and synergy analysis (Combenefit); assay type: cell-based; conditions: for tirapazamine doses required to achieve a synergy score of 30-40: with 10 nM BMN673; for tirapazamine dose required for a synergy score of 20-30: with 0.1 μM olaparib
Procedure: FIGS. 8A and 8B show survival percentage of OVCAR8 cells treated with olaparib (0.001-10 μM) and TPZ (0.1-50 μM) or BMN673 (0.01-20 nM) and TPZ (0.1-50 μM) (FIG. 8A), and HSA synergism analysis of OVCAR8 cells treated with varying doses of TPZ and olaparib or TPZ and BMN673 (FIG. 8B).
as §7

[14] = 2% oxygen compared to 5% oxygen
[15] = 2% oxygen compared to 21% oxygen
[16] = 5% oxygen compared to 21% oxygen

For `O=C(c1cc(Cc2n[nH]c(=O)c3ccccc23)ccc1F)N1CCN(C(=O)C2CC2)CC1` [olaparib], the “survival in the presence of PARP inhibitor” value (shortened to “survival … of PARP inhibitor”) [1, 14] was “significantly improved survival”, the “survival … of PARP inhibitor” value [1, 15] was “significantly improved survival” and the “survival fraction versus correspondingly treated samples at 21% oxygen” value [1] was “higher survival fractions”. For the same compound, the “survival … of PARP inhibitor” value [1, 16] was “significantly improved survival”, the survival fraction [1] was “reduced” and the “survival fraction versus correspondingly treated samples at 21% oxygen” value [2] was “higher survival fractions”. The survival fraction [2] was “reduced”, the “survival fraction versus correspondingly treated samples at 21% oxygen” value [3] was “higher survival fractions” and the survival fraction [3] was “reduced”. For the same compound, the “survival fraction versus correspondingly treated samples at 21% oxygen” value [4] was “higher survival fractions”, the survival fraction [4] was “reduced” and the “correlation between hypoxia score of the tumors and their sensitivity to olaparib therapy” value [5] was “strong inverse correlation”. The “PAR formation in xenograft samples” value [6] was “no evidence of PAR formation”, the PAR formation ([7]; 2% oxygen) was “reduced PAR formation” and the PAR formation ([7]; 21% oxygen) was “reduced PAR formation”. For the same compound, the PAR formation ([8]; 2% oxygen) was “reduced PAR formation” and the PAR formation ([8]; 21% oxygen) was “reduced PAR formation”.
With `Cn1ncnc1[C@H]1c2n[nH]c(=O)c3cc(F)cc(c23)N[C@@H]1c1ccc(F)cc1` [talazoparib] the “survival … of PARP inhibitor” value [1, 14] was “significantly improved survival”, the “survival … of PARP inhibitor” value [1, 15] was “significantly improved survival” and the “survival fraction versus correspondingly treated samples at 21% oxygen” value [1] was “higher survival fractions”. The “survival … of PARP inhibitor” value [1, 16] was “significantly improved survival”, the survival fraction [1] was “reduced” and the “survival fraction versus correspondingly treated samples at 21% oxygen” value [2] was “higher survival fractions”. For the same compound, the survival fraction [2] was “reduced”, the “survival fraction versus correspondingly treated samples at 21% oxygen” value [3] was “higher survival fractions” and the survival fraction [3] was “reduced”. The “survival fraction versus correspondingly treated samples at 21% oxygen” value [4] was “higher survival fractions”, the survival fraction [4] was “reduced” and the PAR formation ([7]; 2% oxygen) was “reduced PAR formation”. The PAR formation ([7]; 21% oxygen) was “reduced PAR formation”, the PAR formation ([8]; 2% oxygen) was “reduced PAR formation” and the PAR formation ([8]; 21% oxygen) was “reduced PAR formation”.
In the case of `Nc1n[n+]([O-])c2ccccc2[n+]1[O-]` [tirapazamine, 3-amino-1,2,4-benzotriazine-1,4-dioxide], the “cell survival fraction as compared to the vehicle” value [9] is listed as “did not have a significant effect”, the “efficacy in clinical trials” value [10] is listed as “lack of efficacy” and the “fold lower doses of tirapazamine required under hypoxic conditions to achieve similar or even higher synergy scores to normoxic conditions” value [11] is listed as 10 fold. The “cell survival fraction as compared to the vehicle” value [12] was “did not have a significant effect”, the “fold lower doses of tirapazamine required under hypoxic conditions to achieve similar or even higher synergy scores to normoxic conditions” value ([13]; combination with PARPi (olaparib and BMN673)) was 10 fold and the “tirapazamine doses required to achieve a synergy score of 30-40” value ([13]; hypoxia) was 0.5 to 1 µM. For the same compound, the “tirapazamine doses required to achieve a synergy score of 30-40” value ([13]; normoxia) was 5 to 10 µM, the “tirapazamine dose required for a synergy score of 20-30” value ([13]; hypoxia) was 1 µM and the “tirapazamine dose required for a synergy score of 20-30” value ([13]; normoxia) was 10 µM.
